The values below are quoted from earlier work in patent US12290493B2 (Advanced Respiratory Technologies, Inc., priority 2017, dated 2025).

Data set [1] deals with beta adrenergic receptors.
The conditions of data set [2]: fraction of the l-epinephrine effect.

Regarding `CNCC(=O)c1ccc(O)c(O)c1` [adrenalone], the beta adrenergic activity entry in data set [1] is listed as “little if any beta adrenergic activity”. `CNC[C@H](O)c1ccc(O)c(O)c1` [d-epinephrine]: the “pressor effect relative to that of l-epinephrine” value in data set [2] was “about one-fifteenth”.
